Results published in patent US20250129048A1, “MELANOCORTIN 4 RECEPTOR ANTAGONISTS AND USES THEREOF” (Pfizer Inc., priority 2021, published 2025).

How the values were obtained:
[1] = target: hMC4R (Homo sapiens (Human), UniProt P32245); assay: In vitro binding affinity assay using hMC4R (radioligand competition binding, CHO cell membranes); conditions: competition with [125I]-(Nle4, D-Phe7)-α-MSH 0.5 nM; Ki from IC50 by Cheng-Prusoff; read-out: Ki (nM) geometric mean
Experimental: The binding affinity of test compounds at the α-melanocyte-stimulating hormone receptor (hMC4R) was assessed using a radioligand competition binding assay. Recombinant Chinese hamster ovaries (CHO) cells stably expressing hMC4R (PerkinElmer #ES-191-C) were used for competitive binding. hMC4R membranes were grown in Dulbecco's Modified Essential Medium and Ham's F-12 Medium (DMEM/F12), 10% heat inactivated fetal bovine serum (FBS), 0.4 mg/mL Geneticin and 2 mM L-glutamine. Cell membranes were bulked and frozen until the assay was performed.
Compounds were solubilized in 100% dimethyl sulfoxide (DMSO) to a concentration of 30 mM. A 10-point intermediate dilution series using half log dilutions was created in 100% DMSO with a top concentration of 0.03 mM. The serially diluted compounds were spotted as 1 μL/well, in 96-well Costar 3363 plates. The final compound range in the assay was 300 nM to 0.01 nM with a final DMSO concentration of 1%. Control wells, containing 1 μL of 2 mM ([…]) alpha-melanocyte stimulating hormone (α-MSH-Tocris #2584) was added to the non-specific binding wells and 1 μL 100% DMSO for the total binding control wells. This was followed by the addition of 80 μL of assay buffer [25 mM HEPES, 5 mM MgCl2, 2.5 mM CaCl2, 150 mM NaCl, Complete EDTA-free Protease Inhibitor Tablet (Thermo Scientific #11873580001) and 0.25% BSA]. […] The exact concentration of radioligand used for each experiment was determined by liquid scintillation counting and adjusted if necessary.
Frozen hMC4R cell membranes were thawed and Dounce homogenized. Homogenates were resuspended in assay buffer to a concentration of 2 μg per well. […] The plates were incubated for 2 hours at room temperature. Assay samples were then rapidly filtered through Unifilter-96 GF/B PEI coated filter plates using a filter plate harvester (PerkinElmer) and rinsed with ice-cold wash buffer [25 mM (4-(2-hydroxyethyl)-1-piperazineethanesulfonic acid (HEPES), 1 mM MgCl2, 2.5 mM CaCl2, and 500 mM NaCl]. Filter plates were dried overnight at room temperature. Plates were then bottom-sealed prior to the addition of 50 μL/well Ultima Gold XR scintillation fluid (PerkinElmer 6013111). Plates were then top-sealed, incubated for 60 minutes at room temperature and then the amount of radioactivity present was determined by liquid scintillation counting on a Microbeta Trilux (PerkinElmer #2450-0060).
The raw data (expressed as counts per minute) were analyzed using ActivityBase (IDBS Data Management Software). […] Equilibrium dissociation constant for inhibitor of ligand and receptor interaction (Ki) values were then calculated from the IC50 values using the Cheng-Prusoff equation: Ki=IC50/(1+([L]/Kd)), where [L] is the concentration of the radioligand used in the experiment and Kd is the affinity of the radioligand (determined in separate saturation experiments).

[2] = target: human Melanocortin-4 receptor (MC4R) (Homo sapiens (Human), UniProt P32245); assay: Functional in vitro MC4R antagonist potency assay (intracellular cAMP, HTRF, CHO cells); format: cell-based; conditions: cAMP after EC80 agonist stimulation (200 nM αMSH); Kb from IC50 by Leff-Dougall equation; read-out: Kb (nM) Antagonist geometric mean
human Melanocortin-4 receptor (MC4R), sequence (P32245 whole entry): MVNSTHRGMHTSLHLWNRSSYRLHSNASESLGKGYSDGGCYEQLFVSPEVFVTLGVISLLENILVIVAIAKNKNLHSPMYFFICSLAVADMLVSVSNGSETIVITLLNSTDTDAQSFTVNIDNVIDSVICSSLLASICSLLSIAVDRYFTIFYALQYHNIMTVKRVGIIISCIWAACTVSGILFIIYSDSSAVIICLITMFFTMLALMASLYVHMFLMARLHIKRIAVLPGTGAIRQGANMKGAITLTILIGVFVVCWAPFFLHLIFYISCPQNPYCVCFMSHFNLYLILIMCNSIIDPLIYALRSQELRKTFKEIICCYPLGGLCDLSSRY
Experimental: The functional in vitro antagonist potency for test compounds was determined by monitoring intracellular cyclic adenosine monophosphate (cAMP) levels in Chinese hamster ovary (CHO—) cells stably expressing the human Melanocortin-4 receptor (MC4R). Following agonist activation, human MC4R associates with the G-protein complex causing the Ga subunit to exchange bound GDP for GTP, followed by dissociation of the Gα-GTP complex. The activated Ga subunit can couple to downstream effectors to regulate the levels of second messengers or cAMP within the cell. Thereby, determination of intracellular cAMP levels allows for pharmacological characterization. Intracellular cAMP levels are quantitated using a homogenous assay utilizing the Homogeneous Time-Resolved Fluorescence (HTRF) technology from CisBio. The method is a competitive immunoassay between native cAMP produced by cells and the cAMP labelled with the acceptor dye, d2. The two entities then compete for binding to a monoclonal anti-cAMP antibody labeled with cryptate. The specific signal is inversely proportional to the concentration of cAMP in the cells.
Test compounds were solubilized to 30 mM in 100% dimethyl sulfoxide (DMSO) and stored. An 11-point dilution series using 1 in 3 162-fold serial dilutions was created in 100% DMSO with a top concentration of 800 μM. The serially diluted compound was spotted into a 384-well plate (Greiner, Cat No. 781280) at 40 nL/well with duplicate points at each concentration, and then diluted 1 in 1000 with 40 μL assay buffer containing HBSS, 20 mM HEPES (Invitrogen), 0.1% BSA, and 250 μM IBMX (Sigma Aldrich) to create an intermediate plate at 2× final assay concentration (FAC). The final compound concentration range in the assay was 400 nM to […], with a final DMSO concentration of 0.1%.
In-house generated CHO cells stably expressing the Gs-coupled human MC4R receptor were plated in 384-well assay plates (Corning, Cat No. 3570) in 50 μL/well of Ham's F-12 containing 10% heat inactivated FBS, 1× penicillin/streptomycin, 1 mM Glutamax (Invitrogen) at a density of 2,500 cells per well and incubated at 37° C. (95% O2: 5% CO2) overnight, with micro-clime lids (Labcyte, Cat No. LLS-0310). On day of assay, media was removed from the assay plate through gentle flicking and blotting plate on a paper towel and replaced with 5 μL of 2× antagonist compound in assay buffer (HBSS, 20 mM HEPES, 0.1% BSA, 250 μM IBMX) and 0.1% DMSO. Cells were incubated with compound for 30 minutes at 37° C. (95% O2: 5% CO2) before addition of 5 μL EC80 agonist stimulation (200 nM α-melanocyte stimulating hormone, αMSH, Bachem) and another 30-minute incubation at 37° C. (95% O2: 5% CO2). Intracellular cAMP levels were quantified as per Cisbio's protocol (5 μL of D2 and then 5 μL Cryptate, incubated for 1-2 hours at room temperature). Samples were measured on an Envision plate reader (PerkinElmer Life and Analytical Sciences; excitation, 320 nm; emission, 665 nm/620 nm).
Data were analyzed using the ratio of fluorescence intensity at 620 and 665 nm for each well, extrapolated from the cAMP standard curve to express data as nM cAMP for each well. Data expressed as nM cAMP were then normalized to control wells using Activity Base (IDBS). Zero percent effect (ZPE) was defined as nM of cAMP generated from EC80 agonist stimulation (200 nM αMSH). In the absence of an antagonist control compound, one hundred percent effect (HPE) was defined as nM of cAMP generated from assay buffer/vehicle only.

hMC4R, sequence (P32245 whole entry): as above

SMILES | Ki [1] | Kb [2]
Cc1nc(N[C@H]2CCN(C(=O)Cc3ccc(F)cc3)C2(C)C)ccc1-c1cn(C)cn1 [Example 3B, 1-[(3S)-2,2-dimethyl-3-{[6-methyl-5-(1-methyl-1H-imidazol-4-yl)pyridin-2-yl]amino}pyrrolidin-1-yl]-2-(4-fluorophenyl)ethan-1-one] | 4.2 nM | 33 nM
COc1cc([C@@H](C)C(=O)N2CC[C@H](Nc3ccc(-c4nc(C(C)(F)F)n(C)n4)c(C)n3)C2)c(F)cn1 [Example 4, (2R)-1-[(3S)-3-({5-[5-(1,1-difluoroethyl)-1-methyl-1H-1,2,4-triazol-3-yl]-6-methylpyridin-2-yl}amino)pyrrolidin-1-yl]-2-(5-fluoro-2-methoxypyridin-4-yl)propan-1-one] | 1 nM | 9.6 nM
COc1cc([C@@H](C)C(=O)N2CC[C@H](Nc3ccc(-c4nnn(C)n4)c(C)n3)C2)c(F)cn1 [Example 5, (2R)-2-(5-fluoro-2-methoxypyridin-4-yl)-1-[(3S)-3-{[6-methyl-5-(2-methyl-2H-tetrazol-5-yl)pyridin-2-yl]amino}pyrrolidin-1-yl]propan-1-one] | 2.6 nM | 17 nM
COc1cc([C@@H](C)C(=O)N2CC[C@H](Nc3ccc(-c4ncccn4)c(C)n3)C2)c(Cl)cn1 [Example 6, (2R)-2-(5-chloro-2-methoxypyridin-4-yl)-1-[(3S)-3-{[6-methyl-5-(pyrimidin-2-yl)pyridin-2-yl]amino}pyrrolidin-1-yl]propan-1-one] | 1.1 nM | 2.2 nM
Cc1nc(N[C@H]2CCN(C(=O)Cc3cc(F)c(F)c(F)c3)C2)ccc1-c1cn(C)c(C(F)F)n1 [Example 28, 1-[(3S)-3-({5-[2-(difluoromethyl)-1-methyl-1H-imidazol-4-yl]-6-methylpyridin-2-yl}amino)pyrrolidin-1-yl]-2-(3,4,5-trifluorophenyl)ethan-1-one] | 0.25 nM | 1.3 nM
[2H]C([2H])([2H])n1nc(-c2ccc(N[C@H]3CCN(C(=O)[C@H](C)c4cc(OC)ncc4F)C3)nc2C)nc1C(F)(F)F [Example 42, (2R)-2-(5-fluoro-2-methoxypyridin-4-yl)-1-[(3S)-3-({6-methyl-5-[1-(^2H3)methyl-5-(trifluoromethyl)-1H-1,2,4-triazol-3-yl]pyridin-2-yl}amino)pyrrolidin-1-yl]propan-1-one] | 1.3 nM | 5.4 nM

The next lines start with the values.

Ki [1] | Kb [2] | SMILES
1.2 nM | 19 nM | COc1cc([C@@H](C)C(=O)N2CC[C@H](Nc3ccc(-c4nc(C(F)F)n(C5CC5)n4)c(C)n3)C2)c(F)cn1 [Example 8, (2R)-1-[(3S)-3-({5-[1-cyclopropyl-5-(difluoromethyl)-1H-1,2,4-triazol-3-yl]-6-methylpyridin-2-yl}amino)pyrrolidin-1-yl]-2-(5-fluoro-2-methoxypyridin-4-yl)propan-1-one]
0.51 nM | 2.1 nM | COc1cc([C@@H](C)C(=O)N2CC[C@H](Nc3ccc(-c4nc5ccccn5n4)c(C)n3)C2)c(Cl)cn1 [Example 18, (2R)-2-(5-chloro-2-methoxypyridin-4-yl)-1-[(3S)-3-{[6-methyl-5-([1,2,4]triazolo[1,5-a]pyridin-2-yl)pyridin-2-yl]amino}pyrrolidin-1-yl]propan-1-one]
0.28 nM | 3.3 nM | COc1cc(OC)cc([C@@H](C)C(=O)N2CC[C@H](Nc3ccc(-c4nc(C(F)(F)F)n(C)n4)c(C)n3)C2)c1 [Example 39, (2R)-2-(3,5-dimethoxyphenyl)-1-[(3S)-3-({6-methyl-5-[1-methyl-5-(trifluoromethyl)-1H-1,2,4-triazol-3-yl]pyridin-2-yl}amino)pyrrolidin-1-yl]propan-1-one]
0.91 nM | 9.5 nM | COc1cc([C@@H](C)C(=O)N2CC[C@H](Nc3ccc(-c4nc5ccccn5n4)c(C)n3)C2)c(F)cn1 [Example 43, (2R)-2-(5-fluoro-2-methoxypyridin-4-yl)-1-[(3S)-3-{[6-methyl-5-([1,2,4]triazolo[1,5-a]pyridin-2-yl)pyridin-2-yl]amino}pyrrolidin-1-yl]propan-1-one]
